Where two headings read alike, the source gives them in different places.
System: BV-2 (mouse microglia) cells
Test: progranulin secretion from BV-2 cells, mouse progranulin ELISA of conditioned media
Type: cell-based
Conditions: BV-2 cells, 16 hours incubation, 8-point curves starting at 10 μM
Description: BV-2 cells are split the day before plating into a 96 well plate format at approximately 80%. Cells should be plated the day before and allowed for 1 hour attachment period and for 16 hour incubation. […] Standard ELISA kits to measure PGRN are available from vendors such as Adipogen, R&D, and Biovendor.
Compound potency was determined by measuring progranulin secretion from BV-2 (mouse microglia) cells. BV-2 cells were grown in RPMI with 2 mM L-glutamine supplemented with 10% fetal bovine serum. On the day of the assay, cells were plated in 96-well plates at a density of 30,000 cells/well in RPMI (Roswell Park Memorial Institute media)/L-glutamine supplemented with 2% Fetal clone serum II (plating media) and left to adhere for 1 hour. Following attachment to the plate, media was replaced with treatment (8-point curves in half-log dilutions starting at 10 μM) in plating media and incubated for 16 hours. Secreted progranulin was measured from a 1:10 dilution of the conditioned media using the R&D Systems mouse progranulin ELISA kit (cat #DY2557) and following the manufacturer's instructions.

[1] = Mus musculus, assay run v1, read-out: PRGN v1 (EC50, progranulin secretion)
[2] = assay run v1, read-out: PRGN v1 (EC50, progranulin secretion)
[3] = Mus musculus, assay run v2 (same protocol, different assay), read-out: PRGN v2 (EC50, progranulin secretion)
[4] = assay run v2 (same protocol, different assay), read-out: PRGN v2 (EC50, progranulin secretion)
[5] = Mus musculus, BV-2, 16 h, assay run v1, read-out: PRGN v1 (EC50, progranulin secretion)

CS(=O)(=O)c1ccc([C@H]2c3ccccc3CCN2C(=O)O[C@@H]2CN3CCC2CC3)cc1 [Compound 1001, (S)—((S)-quinuclidin-3-yl)-1-(4-(methylsulfonyl)phenyl)-3,4-dihydroisoquinoline-2(1H)-carboxylate]
EC50 [1]: > 10 µM

O=C(O[C@@H]1CN2CCC1CC2)N1CCc2ccccc2[C@@H]1c1ccnc(O)c1 [Compound 1002]
EC50 [2]: > 10 µM

O=C(O[C@@H]1CN2CCC1CC2)N1CCc2ccccc2[C@H]1c1ccnc(O)c1 [Compound 1003]
EC50 [2]: > 10 µM

O=C(O[C@@H]1CN2CCC1CC2)N1CCc2ccccc2[C@@H]1c1ccc(F)cc1 [Compound 1004, (S)—((S)-quinuclidin-3-yl) 1-(4-fluorophenyl)-3,4-dihydroisoquinoline-2(1H)-carboxylate]
EC50 [1]: 0.36 µM
EC50 [3]: 0.43 µM

O=C(O[C@@H]1CN2CCC1CC2)N1CCc2ccccc2[C@H]1c1ccc(F)cc1 [Compound 1005]
EC50 [1]: > 7 µM

O=C(O[C@@H]1CN2CCC1CC2)N1CCc2ccccc2[C@@H]1c1ccc(-n2ccnc2)cc1 [Compound 1006]
EC50 [1]: 5.7 µM

O=C(O[C@@H]1CN2CCC1CC2)N1CCc2ccccc2[C@H]1c1ccc(-n2ccnc2)cc1 [Compound 1007]
EC50 [1]: > 10 µM

COc1cc([C@H]2c3ccccc3CCN2C(=O)O[C@@H]2CN3CCC2CC3)ccn1 [Compound 1008]
EC50 [2]: > 10 µM

COc1cc([C@@H]2c3ccccc3CCN2C(=O)O[C@@H]2CN3CCC2CC3)ccn1 [Compound 1009]
EC50 [2]: > 10 µM

O=C(O[C@@H]1CN2CCC1CC2)N1CCc2ccccc2[C@@H]1c1ccc(F)c(F)c1 [Compound 1010]
EC50 [1]: 0.92 µM
EC50 [3]: 2.03 µM

O=C(O[C@@H]1CN2CCC1CC2)N1CCc2ccccc2[C@H]1c1ccc(F)c(F)c1 [Compound 1011]
EC50 [1]: 7.14 µM
EC50 [3]: 8.74 µM

O=C(O[C@@H]1CN2CCC1CC2)N1CCc2ccccc2[C@@H]1c1ccc(F)cc1F [Compound 1012]
EC50 [2]: 0.44 µM
EC50 [4]: 0.25 µM

O=C(O[C@@H]1CN2CCC1CC2)N1CCc2ccccc2[C@H]1c1ccc(F)cc1F [Compound 1013]
EC50 [2]: > 10 µM
EC50 [4]: 1.75 µM

O=C(O[C@@H]1CN2CCC1CC2)N1CCc2ccccc2[C@H]1c1cccc(F)c1F [Compound 1014]
EC50 [2]: > 10 µM
EC50 [4]: 4.3 µM

O=C(O[C@@H]1CN2CCC1CC2)N1CCc2ccccc2[C@@H]1c1cccc(F)c1F [Compound 1015]
EC50 [2]: 0.33 µM
EC50 [4]: 1.11 µM

O=C1CCCN1c1ccc([C@H]2c3ccccc3CCN2C(=O)O[C@@H]2CN3CCC2CC3)cc1 [Compound 1016]
EC50 [1]: > 10 µM
EC50 [3]: > 10 µM

O=C1CCCN1c1ccc([C@@H]2c3ccccc3CCN2C(=O)O[C@@H]2CN3CCC2CC3)cc1 [Compound 1017]
EC50 [1]: > 10 µM
EC50 [3]: > 10 µM

O=C(O[C@@H]1CN2CCC1CC2)N1CCc2ccccc2[C@@H]1c1ccc(-n2cncn2)cc1 [Compound 1018]
EC50 [1]: > 10 µM
EC50 [3]: > 10 µM

O=C(O[C@@H]1CN2CCC1CC2)N1CCc2ccccc2[C@H]1c1ccc(-n2cncn2)cc1 [Compound 1019]
EC50 [1]: > 10 µM
EC50 [3]: > 10 µM

O=C(O[C@@H]1CN2CCC1CC2)N1CCc2ccccc2[C@@H]1c1cccc(F)c1 [Compound 1020]
EC50 [2]: 1.37 µM
EC50 [4]: 3.55 µM

O=C(O[C@@H]1CN2CCC1CC2)N1CCc2ccccc2[C@H]1c1cccc(F)c1 [Compound 1021]
EC50 [2]: > 10 µM
EC50 [4]: 1.03 µM

O=C(O[C@@H]1CN2CCC1CC2)N1CCc2ccccc2[C@@H]1c1ccc(OC2CC2)cc1 [Compound 1022]
EC50 [1]: > 10 µM
EC50 [3]: > 10 µM

O=C(O[C@@H]1CN2CCC1CC2)N1CCc2ccccc2[C@H]1c1ccc(OC2CC2)cc1 [Compound 1023]
EC50 [1]: 9.53 µM
EC50 [3]: 6.33 µM

COc1ccc([C@H]2c3ccccc3CCN2C(=O)O[C@@H]2CN3CCC2CC3)cc1 [Compound 1024]
EC50 [2]: 2.87 µM
EC50 [4]: 2.91 µM

COc1ccc([C@@H]2c3ccccc3CCN2C(=O)O[C@@H]2CN3CCC2CC3)cc1 [Compound 1025]
EC50 [2]: 4.41 µM
EC50 [4]: > 10 µM

O=C1CCC([C@H]2c3ccccc3CCN2C(=O)O[C@@H]2CN3CCC2CC3)CN1 (stereo partly drawn) [Compound 1026]
EC50 [2]: > 10 µM
EC50 [4]: > 10 µM

O=C1CCC([C@@H]2c3ccccc3CCN2C(=O)O[C@@H]2CN3CCC2CC3)CN1 (stereo partly drawn) [Compound 1027]
EC50 [2]: 9.53 µM
EC50 [4]: > 10 µM

COc1ccc([C@H]2c3ccccc3CCN2C(=O)O[C@@H]2CN3CCC2CC3)cn1 [Compound 1028]
EC50 [2]: > 10 µM
EC50 [4]: > 10 µM

COc1ccc([C@@H]2c3ccccc3CCN2C(=O)O[C@@H]2CN3CCC2CC3)cn1 [Compound 1029]
EC50 [2]: > 10 µM
EC50 [4]: > 10 µM

O=C(O[C@@H]1CN2CCC1CC2)N1CCc2ccccc2[C@@H]1CS(=O)(=O)c1ccccc1 [Compound 1030]
EC50 [1]: > 10 µM
EC50 [3]: > 10 µM

O=C(O[C@@H]1CN2CCC1CC2)N1CCc2ccccc2[C@H]1CS(=O)(=O)c1ccccc1 [Compound 1031]
EC50 [1]: > 10 µM
EC50 [3]: > 10 µM

O=C(O[C@@H]1CN2CCC1CC2)N1CCc2ccccc2[C@@H]1c1ccc2ncsc2c1 [Compound 1032]
EC50 [2]: > 10 µM
EC50 [4]: 7.88 µM

O=C(O[C@@H]1CN2CCC1CC2)N1CCc2ccccc2[C@H]1c1ccc2ncsc2c1 [Compound 1033]
EC50 [2]: > 10 µM
EC50 [4]: > 10 µM

O=C(O[C@@H]1CN2CCC1CC2)N1CCc2ccccc2[C@@H]1c1ccc2scnc2c1 [Compound 1034]
EC50 [2]: > 10 µM
EC50 [4]: 5.77 µM

O=C(O[C@@H]1CN2CCC1CC2)N1CCc2ccccc2[C@H]1c1ccc2scnc2c1 [Compound 1035]
EC50 [2]: > 10 µM
EC50 [4]: > 10 µM

O=C(O[C@@H]1CN2CCC1CC2)N1CCc2ccccc2[C@@H]1c1cc2ccccc2s1 [Compound 1036]
EC50 [2]: > 3.16 µM
EC50 [4]: > 10 µM

O=C(O[C@@H]1CN2CCC1CC2)N1CCc2ccccc2[C@H]1c1cc2ccccc2s1 [Compound 1037]
EC50 [2]: > 3.16 µM
EC50 [4]: > 10 µM

COc1ccc([C@H]2c3ccccc3CCN2C(=O)O[C@@H]2CN3CCC2CC3)cc1F [Compound 1038]
EC50 [4]: > 10 µM

COc1ccc([C@@H]2c3ccccc3CCN2C(=O)O[C@@H]2CN3CCC2CC3)cc1F [Compound 1039]
EC50 [4]: > 10 µM

O=C(O[C@@H]1CN2CCC1CC2)N1CCc2ccccc2[C@@H]1c1cc(F)cc(F)c1 [Compound 1040]
EC50 [4]: > 10 µM

O=C(O[C@@H]1CN2CCC1CC2)N1CCc2ccccc2[C@H]1c1cc(F)cc(F)c1 [Compound 1041]
EC50 [4]: > 10 µM

O=C(O[C@@H]1CN2CCC1CC2)N1CCc2ccccc2[C@@H]1c1ccc(-n2cnnc2)cc1 [Compound 1042]
EC50 [3]: > 10 µM

O=C(O[C@@H]1CN2CCC1CC2)N1CCc2ccccc2[C@H]1c1ccc(-n2cnnc2)cc1 [Compound 1043]
EC50 [3]: > 10 µM

O=C(O[C@@H]1CN2CCC1CC2)N1Cc2ccccc2[C@@H]1c1ccccc1 [Compound 1044]
EC50 [3]: > 10 µM

O=C(O[C@@H]1CN2CCC1CC2)N1Cc2ccccc2[C@H]1c1ccccc1 [Compound 1045]
EC50 [3]: > 10 µM

O=C(O[C@@H]1CN2CCC1CC2)N1CCc2ccccc2[C@@H]1c1ccc(Cl)cc1 [Compound 1046]
EC50 [1]: 0.34 µM

O=C(N[C@@H]1CN2CCC1CC2)N1CCc2ccccc2[C@@H]1c1ccccc1 [Compound 1047]
EC50 [5]: 0.7 µM

O=C(C[C@@H]1CN2CCC1CC2)N1CCc2ccccc2[C@@H]1c1ccccc1 [Compound 1048]
EC50 [5]: 0.88 µM

O=C(C[C@@H]1CN2CCC1CC2)N1CCc2ccccc2[C@@H]1c1ccc(Cl)cc1 [Compound 1049]
EC50 [5]: 0.21 µM

CC1(C)[C@@H](NC(=O)N2CCc3ccccc3[C@@H]2c2ccc(Cl)cc2)C2CCN1CC2 [Compound 1050]
EC50 [5]: 0.36 µM

O=C(C[C@H]1CN2CCC1CC2)N1CCc2ccccc2[C@@H]1c1ccccc1 [Compound 1051]
EC50 [5]: 1.37 µM

CS(=O)(=O)c1ccc([C@H]2c3ccccc3CCN2C(=O)C[C@@H]2CN3CCC2CC3)cc1 [Compound 1052]
EC50 [5]: > 10 µM

O=C(C[C@@H]1CN2CCC1CC2)N1CCc2ccccc2[C@@H]1c1ccc(F)cc1F [Compound 1053]
EC50 [5]: 0.96 µM

O=C(C[C@@H]1CN2CCC1CC2)N1CCc2ccccc2[C@@H]1c1ccc(-n2cncn2)cc1 [Compound 1054]
EC50 [5]: > 10 µM

O=C(C[C@@H]1CN2CCC1CC2)N1CCc2ccccc2[C@H]1c1ccc(-n2cncn2)cc1 [Compound 1055]
EC50 [5]: > 10 µM

COc1ccc([C@H]2c3ccccc3CCN2C(=O)C[C@@H]2CN3CCC2CC3)cc1 [Compound 1056]
EC50 [5]: 3.72 µM

COc1ccc([C@@H]2c3ccccc3CCN2C(=O)C[C@@H]2CN3CCC2CC3)cc1 [Compound 1057]
EC50 [5]: 4.2 µM

O=C(C[C@@H]1CN2CCC1CC2)N1CCc2ccccc2[C@@H]1c1ccc(F)cc1 [Compound 1058]
EC50 [1]: 0.22 µM

O=C(C[C@@H]1CN2CCC1CC2)N1CCc2ccccc2[C@H]1c1ccc(F)cc1 [Compound 1059]
EC50 [1]: > 10 µM

COc1ccc([C@H]2c3ccccc3CCN2C(=O)C[C@@H]2CN3CCC2CC3)cc1F [Compound 1060]
EC50 [5]: > 10 µM
EC50 (Mus musculus, BV-2, 16 h, assay run v2 (same protocol, different assay), read-out: PRGN v2 (EC50, progranulin secretion)): 2.07 µM

Reference: US20210163471A1, “PROGRANULIN MODULATORS AND METHODS OF USING THE SAME” (ARKUDA THERAPEUTICS, priority 2017, published 2021)
